Test system: miRNAs in diaphragm muscle of mdx mice
Assay: TaqMan low-density array (TLDA) miRNA profiling of diaphragm, discovery set (prophylactic mdx trial)
Type: in vivo, mouse
Details: mdx diaphragm, vs untreated mdx; Pred 5 mg/kg, Vam 15 mg/kg
From the text: Archival muscle samples (diaphragm) from two separate preclinical studies were obtained, with each trial showing a significant benefit from both prednisolone and vamorolone drug treatments (23). Prednisolone was used because it is the active form of prednisone, the current DMD standard of care. The first, “discovery set” of diaphragm muscles was from a prophylactic trial design where 2-week old (postnatal day 15) mdx or wild type control mice received oral dosing for 6 weeks with vehicle (cherry syrup), prednisolone (5 mg/kg), or vamorolone (15 mg/kg) as previously reported (23). The second, “validation set” of diaphragm muscles was from an extended trial in older mice where mdx or wild type mice were subjected to treadmill running to unmask mild phenotypes. Mice in this validation set were treated with either vehicle, prednisolone (5 mg/kg) or vamorolone (45 mg/kg) for four months beginning at two months of age (23). At the endpoint of each trial, diaphragm muscles were harvested and frozen in liquid nitrogen-cooled isopentane.
We extracted total RNA from 5 diaphragm muscles per treatment group in the discovery set of samples from 8-week old mice. RNA was extracted using a modified TRIzol protocol with isopropanol precipitation at −20° C. overnight. This RNA was reverse transcribed to cDNA using a High Capacity cDNA Reverse Transcription Kit with RNase Inhibitor (ThermoFisher; Carlsbad, Calif.), with miRNA-specific Megaplex RT Primers, Rodent Pools Set version 3.0 (ThermoFisher; Carlsbad, Calif.). Levels of each of the miRNAs were profiled in the discovery set using TAQMAN Array Rodent MiRNA A+B Cards Set v3.0 (ThermoFisher; Carlsbad, Calif.).
In the discovery set experiments, levels of each miRNA were quantified in TaqMan low-density arrays using ThermoFisher Cloud software with the Relative Quantification Application (ThermoFisher; Carlsbad, Calif.) tool. Data was analyzed by ANOVA with post-hoc comparison of each group to the mdx vehicle-treated group. […] A P-value of P≤0.05 was set as the significance threshold, without adjustment for multiple comparisons. To reduce false-positive discovery in this setting, an evidence-based approach was used to identify efficacy associated miRNAs where 1) results from the multiple groups were cross-referenced, and 2) all candidate miRNAs identified in this discovery set were then assayed in a separate validation set of mice. For the validation set experiments, levels of each individual miRNA were assayed in samples from a second, independent preclinical trial in adult mdx mice. Data from individual TaqMan Assays was quantified using QuantStudio Real-Time PCR version 1.3 software (Applied Biosystems; Foster City, Calif.). The levels of all miRNAs were normalized to the geometric mean of multiple control genes (60, 70). Comparison of groups was made by ANOVA with Holm-Sidak post-hoc test comparing each group to mdx vehicle.
To visualize behavior of miRNAs within individual mice for each group, heat map images were generated. Heat maps were generated using Rq values of TLDA array data exported from the Relative Quantification Application of the ThermoFisher Cloud software (ThermoFisher; Carlsbad, Calif.) tool. Heat maps of miRNA expression were produced using Hierarchical Clustering Explorer Version 3.5 (at www.cs.umd.edu/hcil/multi-cluster/) produced by the Human Computer Interaction Laboratory (University of Maryland; College Park, Md.).
To examine miRNA expression TaqMan low density qPCR array cards were used to profile approximately 750 miRNAs within diaphragm muscle from a discovery set of mice. Samples for this experiment came from a trial that utilized a prophylactic approach (23). Briefly, mdx mice undergo a stage of peak severity characterized by widespread inflammation and necrosis from approximately 3-8 weeks of age, followed by a recovery stage where mice show milder phenotypes (25). […]

C[C@]12C=CC(=O)C=C1CC[C@@H]1[C@@H]2[C@@H](O)C[C@@]2(C)[C@H]1CC[C@]2(O)C(=O)CO [prednisolone]
Rq mmu-miR-214-002306: 0.898
Rq mmu-miR-215-001200: 0.792
Rq mmu-miR-218-000521: 0.615
Rq mmu-miR-221-000524: 0.687
Rq mmu-miR-222-002276: 0.666
Rq mmu-miR-223-002295: 0.804
Rq mmu-miR-296-5p-000527: 1.035
Rq mmu-miR-301a-000528: 0.687
Rq mmu-miR-301b-002600: 0.862
Rq mmu-miR-322-001076: 0.67
Rq mmu-miR-324-3p-002509: 0.713
Rq mmu-miR-324-5p-000539: 0.859
Rq mmu-miR-328-000543: 0.888
Rq mmu-miR-335-3p-002185: 1.354
Rq mmu-miR-335-5p-000546: 0.756
Rq mmu-miR-337-3p-002532: 0.853
Rq mmu-miR-338-3p-002252: 0.469
Rq mmu-miR-339-5p-002257: 0.652
Rq mmu-miR-340-3p-002259: 0.581
Rq mmu-miR-340-5p-002258: 0.602
Rq mmu-miR-342-3p-002260: 0.407
Rq mmu-miR-342-5p-002527: 0.529
Rq mmu-miR-345-5p-002528: 0.713
Rq mmu-miR-350-002530: 0.796
Rq mmu-miR-362-3p-002616: 0.936
Rq mmu-miR-362-5p-002614: 1.241
Rq mmu-miR-369-3p-000557: 1.192
Rq mmu-miR-369-5p-001021: 1.211
Rq mmu-miR-370-002275: 1.975
Rq mmu-miR-376a#-002482: 1.351
Rq mmu-miR-376a-001069: 1.484
Rq mmu-miR-376b#-002451: 1.084
Rq mmu-miR-376b-002452: 1.602
Rq mmu-miR-376c-002450: 0.966
Rq mmu-miR-379-001138: 1.085
Rq mmu-miR-380-5p-002601: 1.287
Rq mmu-miR-381-000571: 1.359
Rq mmu-miR-382-000572: 1.017
Rq mmu-miR-383-001767: 0.551
Rq mmu-miR-384-5p-002602: 0.618
Rq mmu-miR-409-3p-002332: 1.906
Rq mmu-miR-410-001274: 1.676
Rq mmu-miR-411-001610: 1.171
Rq mmu-miR-431-001979: 1.819
Rq mmu-miR-433-001028: 2.288
Rq mmu-miR-434-5p-002581: 1.271
Rq mmu-miR-450a-5p-002303: 1.051
Rq mmu-miR-455-002455: 0.612
Rq mmu-miR-467F-002886: 1.346
Rq mmu-miR-467a-002587: 0.751
Rq mmu-miR-467c-002517: 0.992
Rq mmu-miR-483#-002560: 1.367
Rq mmu-miR-486-001278: 0.917
Rq mmu-miR-487b-001285: 1.43
Rq mmu-miR-489-001302: 0.792
Rq mmu-miR-491-001630: 0.776
Rq mmu-miR-493-002519: 2.641
Rq mmu-miR-494-002365: 1.025
Rq mmu-miR-495-001663: 1.448
Rq mmu-miR-497-001346: 0.482
Rq mmu-miR-500-002606: 0.935
Rq mmu-miR-501-3p-001651: 0.97
Rq mmu-miR-503-002456: 0.923
Rq mmu-miR-511-002549: 0.48
Rq mmu-miR-532-3p-002355: 1.067
Rq mmu-miR-532-5p-001518: 1.087
Rq mmu-miR-540-3p-001310: 0.908
Rq mmu-miR-541-002562: 1.165
Rq mmu-miR-542-3p-001284: 1.123
Rq mmu-miR-542-5p-002563: 0.96
Rq mmu-miR-543-001298: 2.644
Rq mmu-miR-543-002376: 1.81
Rq mmu-miR-544-002550: 1.001
Rq mmu-miR-574-3p-002349: 0.667
Rq mmu-miR-652-002352: 0.626
Rq mmu-miR-665-002607: 1.683
Rq mmu-miR-669a-001683: 0.678
Rq mmu-miR-673-3p-002449: 1.562
Rq mmu-miR-673-001954: 2.031
Rq mmu-miR-674#-001956: 0.857
Rq mmu-miR-674-002021: 0.846
Rq mmu-miR-675-3p-001941: 1.258
Rq mmu-miR-682-001666: 0.702
Rq mmu-miR-690-001677: 0.744
Rq mmu-miR-706-001641: 0.75
Rq mmu-miR-708-002341: 0.636
Rq mmu-miR-720-001629: 0.905
Rq mmu-miR-802-002029: 0.245
Rq mmu-miR-805-002045: 1.066
Rq mmu-miR-1274a-121150_mat: 1.138
Rq mmu-miR-1941-3p-121130_mat: 2.166
Rq mmu-miR-1943-121174_mat: 0.831
Rq mmu-miR-1944-121189_mat: 0.877
Rq mmu-miR-2146-241082_mat: 1.113
Rq mmu-miR-30d-000420: 0.701
Rq rno-miR-1-002064: 0.911
Rq rno-miR-7#-001338: 0.751
Rq rno-miR-7a#-002062: 0.863
Rq rno-miR-20b-001326: 0.491
Rq rno-miR-29c#-001818: 0.826
Rq rno-miR-204#-002076: 0.729
Rq rno-miR-224-000599: 1.144
Rq rno-miR-345-3p-002061: 0.859
Rq rno-miR-351-002063: 1.366
Rq rno-miR-379#-002081: 1.563
Rq rno-miR-381-001322: 1.107
Rq rno-miR-489-001353: 0.626
Rq rno-miR-664-001323: 0.638

Reference: patent US12281304B2, “Compositions and methods for treating and preventing muscular disorders and dystrophies, steroid side effects, and inflammation” (Children's National Medical Center, priority 2018, dated 2025)
